Data: patent US7691844B2, “Nonpeptide substituted spirobenzoazepines as vasopressin antagonists” (Ortho-McNeil Pharmaceutical, Inc., priority 2000, dated 2010)

Tests used:
V1a = V1a (Homo sapiens, UniProt P37288); assay: In-vitro receptor binding assay (3H-arginine-8-vasopressin), V1a
Description: (§1) (A) In-Vitro Binding Assay […] The reaction plates are allowed to sit at room temperature for one hour. The samples are filtered through Unifilter GF/C plates (presoaked in 0.3 polyethyleneimine). The plates are washed 5 times with cold physiological saline containing 0.05% Tween 20. After drying, the bottom of the filter plates are sealed and 0.025 ml of Microscint-20 is added to each filter. The top of the plate is sealed, and the plate is counted. Non-specific binding is determined by the addition of 1.25 μM […]-vasopressin in those wells. % Inh. is calculated as follows: […]

human V2 receptor = human V2 receptor (Homo sapiens, UniProt P30518); assay: In-vitro receptor binding assay (3H-arginine-8-vasopressin), V2
Sequence of human V2 receptor (P30518 whole entry): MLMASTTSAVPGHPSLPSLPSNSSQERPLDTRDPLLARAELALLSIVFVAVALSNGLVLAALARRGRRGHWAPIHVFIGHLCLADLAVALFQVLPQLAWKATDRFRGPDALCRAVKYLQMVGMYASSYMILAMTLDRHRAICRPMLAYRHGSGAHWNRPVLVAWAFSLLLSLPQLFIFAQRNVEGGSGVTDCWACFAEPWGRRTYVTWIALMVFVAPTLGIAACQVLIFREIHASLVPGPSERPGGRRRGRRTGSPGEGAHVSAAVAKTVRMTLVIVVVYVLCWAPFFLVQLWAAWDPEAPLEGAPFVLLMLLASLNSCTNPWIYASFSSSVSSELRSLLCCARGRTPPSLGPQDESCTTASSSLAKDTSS
Description: as §1

[1] = @ 1 μM, read-out: Receptor Binding V2 (% Inh. @ concentration in μM)
[2] = @ 10 μM, read-out: Receptor Binding V2 (% Inh. @ concentration in μM)
[3] = read-out: Receptor Binding V2 (% Inh. @ concentration in μM)
[4] = @ 1 μM, read-out: Receptor Binding V1a (% Inh. @ concentration in μM)
[5] = read-out: Receptor Binding V1a (% Inh. @ concentration in μM)

Sequence of V1a (P37288 whole entry): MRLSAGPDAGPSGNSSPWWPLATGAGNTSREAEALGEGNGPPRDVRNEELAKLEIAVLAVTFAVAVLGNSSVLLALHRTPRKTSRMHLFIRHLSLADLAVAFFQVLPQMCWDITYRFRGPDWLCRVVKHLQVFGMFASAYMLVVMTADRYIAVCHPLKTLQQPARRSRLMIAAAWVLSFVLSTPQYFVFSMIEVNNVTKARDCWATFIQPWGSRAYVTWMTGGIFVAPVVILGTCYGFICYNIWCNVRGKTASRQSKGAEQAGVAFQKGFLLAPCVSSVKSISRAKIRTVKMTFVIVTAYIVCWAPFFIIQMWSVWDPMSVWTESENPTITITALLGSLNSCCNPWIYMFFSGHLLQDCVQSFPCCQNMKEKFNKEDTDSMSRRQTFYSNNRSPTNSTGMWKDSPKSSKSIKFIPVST

CSc1cccc(C(=O)Nc2ccc(C(=O)N3CCC4(C=CCCC4)Cc4ccccc43)cc2)c1 (stereo not drawn) [Compound 93]
IC50 (V1a): 0.015 µM | inhibition at 1 µM (human V2 receptor; [1]): 26%

O=C(Nc1ccc(C(=O)N2CCC3(CCCCC3=O)Cc3ccccc32)cc1)c1ccccc1-c1ccccc1 (stereo not drawn) [Compound 31]
IC50 (V1a): 0.021 µM | IC50 (human V2 receptor): 0.054 µM

Cc1ccc(F)cc1C(=O)Nc1ccc(C(=O)N2CCC3(C=C(C(=O)NCCN4CCCCC4)CC3)Cc3ccccc32)cc1 (stereo not drawn) [Compound 160]
IC50 (V1a): 0.011 µM | IC50 (human V2 receptor): 0.082 µM

O=C(c1ccc(-n2ccc(CO)c2)cc1)N1CCC2(C=CCCC2)Cc2ccccc21 (stereo not drawn) [Compound 154]
IC50 (V1a): 0.025 µM | inhibition at 1 µM (human V2 receptor; [1]): 36%

O=C(c1cccc(Br)c1)N1CCC2(C=CCCC2)Cc2ccccc21 (stereo not drawn) [Compound 51]
IC50 (V1a): 5.6 µM | inhibition at 10 µM (human V2 receptor; [2]): 33%

CN(C)c1ccc(C(=O)N2CCC3(C=CCCC3)Cc3ccccc32)cc1 (stereo not drawn) [Compound 60]
IC50 (V1a): 0.051 µM | Receptor Binding V2 (% Inh. @ concentration in μM) (human V2 receptor; @ 1 μM): 14% @ 1

Cc1ccccc1C(=O)Nc1ccc(C(=O)N2CCC3(CCCCC3)Cc3ccccc32)cc1 [Compound 28]
IC50 (V1a): 0.25 µM | Receptor Binding V2 (% Inh. @ concentration in μM) (human V2 receptor; @ 10 μM): 1% @ 10

O=C(c1ccc(Cl)cc1)N1CCC2(C=CCCC2)Cc2ccccc21 (stereo not drawn) [Compound 39]
IC50 (V1a): 1.1 µM | IC50 (human V2 receptor): 10 µM

O=C(c1ccc(OCC2CCCCC2)cc1)N1CCC2(C=CCCC2)Cc2ccccc21 (stereo not drawn) [Compound 183]
IC50 (V1a): 0.25 µM | inhibition at 1 µM (human V2 receptor; [1]): 18%

O=C(Nc1ccc(C(=O)N2CCC3(C=CCCC3)Cc3ccccc32)cc1)c1ccccc1 (stereo not drawn) [Compound 67]
IC50 (V1a): 0.02 µM | IC50 (human V2 receptor): 0.39 µM

O=CC1=C[C@@]2(CC1)CCN(C(=O)c1ccc(NC(=O)c3ccccc3F)cc1Cl)c1ccccc1C2 [Compound 144]
IC50 (V1a): 0.008 µM | inhibition at 0.1 µM (human V2 receptor; [3]): 9%

CON(C)Cc1ccn(-c2ccc(C(=O)N3CCC4(C=C(C(=O)NCCN(C)C)CC4)Cc4ccccc43)cc2)c1 (stereo not drawn) [Compound 210]
inhibition at 0.125 µM (V1a; @ 0.125 μM, read-out: Receptor Binding V1a (% Inh. @ concentration in μM)): 6% | inhibition at 1 µM (human V2 receptor; [1]): 22%

COc1ccc(C(=O)N2CCC3(C=CCCC3)Cc3ccccc32)cc1OC (stereo not drawn) [Compound 75]
IC50 (V1a): 0.07 µM | inhibition at 1 µM (human V2 receptor; [1]): 1%

O=C(c1ccc(OC2CCCC2)cc1)N1CCC2(C=CCCC2)Cc2ccccc21 (stereo not drawn) [Compound 180]
IC50 (V1a): 0.088 µM | inhibition at 1 µM (human V2 receptor; [1]): 20%

O=C(Nc1ccccc1)N1CCC2(C=CCCC2)Cc2ccccc21 (stereo not drawn) [Compound 61]
Receptor Binding V1a (% Inh. @ concentration in μM) (V1a; @ 1 μM): 11% @ 1 | Receptor Binding V2 (% Inh. @ concentration in μM) (human V2 receptor; @ 1 μM): 3% @ 1

O=C(O)c1ccc(C(=O)N2CCC3(C=CCCC3)Cc3ccccc32)cc1 (stereo not drawn) [Compound 65, 4-(4-Carboxybenzoyl)-4-aza-[6,5]-spiro-[5,6]-benzododec-2′-ene]
inhibition at 1 µM (V1a; [4]): 8% | inhibition at 1 µM (human V2 receptor; [1]): 11%

COC(=O)C1=CC2(CC1)CCN(C(=O)c1ccc(N)cc1)c1ccccc1C2 (stereo not drawn) [Compound 134]
inhibition at 0.1 µM (V1a; [5]): 21% | inhibition at 0.1 µM (human V2 receptor; [3]): 16%

COc1cc(C(=O)N2CCC3(C=C(C(=O)NCCN(C)C)CC3)Cc3ccccc32)ccc1N (stereo not drawn) [Compound 187, 4-(4-Amino-3-methoxybenzoyl)-4-aza-3′-[2-(N,N-dimethylamino)ethylcarboxamido]-[6,4]-spiro-[5,6]-benzoundec-2′-ene]
inhibition at 1 µM (V1a; [4]): 54% | inhibition at 1 µM (human V2 receptor; [1]): 7%

COc1cc(C(=O)N2CCC3(C=C(C(=O)NCCN(C)C)CC3)Cc3ccccc32)ccc1-n1ccc(C=O)c1 (stereo not drawn) [Compound 189, 4-[3-Methoxy-4-(pyrrol-1-yl-3-carboxaldehyde)benzoyl]-3′-[2-(N,N-dimethylamino)ethylcarboxamido]-4-aza-[6,4]-spiro-[5,6]-benzoundec-2′-ene]
IC50 (V1a): 0.045 µM | inhibition at 1 µM (human V2 receptor; [1]): 13%

Cc1ccc(C(=O)Nc2ccc(C(=O)N3CCC4(C=CCCC4)Cc4ccccc43)cc2)cc1 (stereo not drawn) [Compound 87]
IC50 (V1a): 0.074 µM | inhibition at 1 µM (human V2 receptor; [1]): 47%

COc1ccc(C(=O)N2Cc3ccccc3CC3(C=CCCC3)C2)cc1OC (stereo not drawn) [Compound 153]
IC50 (V1a): 0.55 µM | inhibition at 1 µM (human V2 receptor; [1]): 0%

O=C(Nc1ccc(C(=O)N2CCC3(C=CCCC3)Cc3ccccc32)cc1)c1ccccc1F (single isomer, unassigned) [Compound 108]
IC50 (V1a): 0.024 µM | IC50 (human V2 receptor): 0.57 µM

CC(=O)c1ccn(-c2ccc(C(=O)N3CCC4(C=CCCC4)Cc4ccccc43)cc2F)c1 (stereo not drawn) [Compound 177]
IC50 (V1a): 0.044 µM | inhibition at 1 µM (human V2 receptor; [1]): 30%

O=C(Nc1ccc(C(=O)N2CCC3(C=CCCC3)Cc3ccccc32)cc1)c1ccc(Cl)cc1Cl (stereo not drawn) [Compound 103]
IC50 (V1a): 0.016 µM | IC50 (human V2 receptor): 0.274 µM

CCCCOc1ccc(C(=O)N2CCC3(C=CCCC3)Cc3cc(Cl)c(Cl)cc32)cc1 (stereo not drawn) [Compound 73]
IC50 (V1a): 0.09 µM | Receptor Binding V2 (% Inh. @ concentration in μM) (human V2 receptor; @ 1 μM): 10% @ 1

COc1cc(N)ccc1C(=O)N1CCC2(C=C(C(=O)NCCN(C)C)CC2)Cc2ccccc21 (stereo not drawn) [Compound 194]
inhibition at 1 µM (V1a; [4]): 7% | inhibition at 1 µM (human V2 receptor; [1]): 6%

COC(=O)c1ccc(C(=O)N2Cc3ccccc3CC3(C=CCCC3)C2)cc1 (stereo not drawn) [Compound 149]
IC50 (V1a): 0.56 µM | inhibition at 1 µM (human V2 receptor; [1]): 54%

CC(=O)Nc1ccc(C(=O)N2CCC3(C=CCCC3)Cc3ccccc32)cc1 (stereo not drawn) [Compound 57]
IC50 (V1a): 0.34 µM | inhibition at 1 µM (human V2 receptor; [1]): 4%

Cc1ncccc1C(=O)Nc1ccc(C(=O)N2CCC3(C=CCCC3)Cc3ccccc32)cc1 (stereo not drawn) [Compound 105]
IC50 (V1a): 0.035 µM | IC50 (human V2 receptor): 1 µM

CCN(C(=O)NCCCN(C)C)C(=O)C1=CC2(CC1)CCN(C(=O)c1ccc(N)c(OC)c1)c1ccccc1C2 (stereo not drawn) [Compound 188]
inhibition at 1 µM (V1a; [4]): 27% | inhibition at 1 µM (human V2 receptor; [1]): 3%

Cc1ccc(F)cc1C(=O)Nc1ccc(C(=O)N2CCC3(C=C(CN4CCN(c5ccncc5)CC4)CC3)Cc3ccccc32)c(Cl)c1 (stereo not drawn) [Compound 142]
inhibition at 0.1 µM (V1a; [5]): 25% | inhibition at 0.1 µM (human V2 receptor; [3]): 69%

Cc1ccn(-c2ccc(C(=O)N3CCC4(C=CCCC4)Cc4ccccc43)cc2-n2ccc(C)n2)n1 (stereo not drawn) [Compound 151]
IC50 (V1a): 0.042 µM | inhibition at 1 µM (human V2 receptor; [1]): 20%

NCc1ccc(C(=O)N2CCC3(C=CCCC3)Cc3ccccc32)cc1 (stereo not drawn) [Compound 42]
Receptor Binding V1a (% Inh. @ concentration in μM) (V1a; @ 10 μM): 0% @ 10 | Receptor Binding V2 (% Inh. @ concentration in μM) (human V2 receptor; @ 10 μM): 24% @ 10

COc1cc(C(=O)N2CCC3(C=C(C(=O)NCCN(C)C)CC3)Cc3ccccc32)ccc1[N+](=O)[O-] (stereo not drawn) [Compound 186, 4-(3-Methoxy-4-nitrobenzoyl)-4-aza-3′-[2-(N,N-dimethylamino)ethylcarboxamido]-[6,4]-spiro-[5,6]benzoundec-2′-ene]
inhibition at 1 µM (V1a; [4]): 48% | inhibition at 1 µM (human V2 receptor; [1]): 11%

C[S+]([O-])c1ccc(C(=O)N2CCC3(C=CCCC3)Cc3ccccc32)cc1 (stereo not drawn) [Compound 94]
IC50 (V1a): 0.02 µM | inhibition at 1 µM (human V2 receptor; [1]): 10%

O=C(Nc1ccc(C(=O)N2CCC3(C=C(C(=O)N(CCN4CCOCC4)CCN4CCOCC4)CC3)Cc3ccccc32)cc1)c1ccccc1-c1ccccc1 (stereo not drawn) [Compound 146]
inhibition at 0.1 µM (V1a; [5]): 48% | inhibition at 0.1 µM (human V2 receptor; [3]): 39%

COc1cc(C(=O)N2CCC3(C=CCCC3)Cc3ccccc32)ccc1-n1ccc(C=O)c1 (stereo not drawn) [Compound 167, 4-(3-Methoxy-4-(pyrrol-1-yl-3-carboxaldehyde)benzoyl)-4-aza-[6,5]-spiro-[5,6]-benzododec-2′-ene]
IC50 (V1a): 0.06 µM | inhibition at 0.225 µM (human V2 receptor; @ 0.225 μM, read-out: Receptor Binding V2 (% Inh. @ concentration in μM)): 19%

N#Cc1ccc(C(=O)N2CCC3(CCCCC3)Cc3ccccc32)cc1 [Compound 24]
IC50 (V1a): 0.8 µM | inhibition at 10 µM (human V2 receptor; [2]): 26%

O=C(Nc1ccc(C(=O)N2CCC3(CCCCC3=O)Cc3ccccc32)cc1)c1ccccc1-c1ccccc1 (stereo not drawn) [Compound 30, 4-(2-Phenylbenzoyl-4-aminobenzoyl)-4-aza-2′-oxo-[6,5]-spiro-[5,6]-benzododecane]
IC50 (V1a): 0.035 µM | IC50 (human V2 receptor): 0.033 µM

O=C(O)CNC(=O)C1=CC2(CC1)CCN(C(=O)c1ccc(NC(=O)c3ccccc3-c3ccccc3)cc1)c1ccccc1C2 (stereo not drawn) [Compound 10]
IC50 (V1a): 0.024 µM | IC50 (human V2 receptor): 0.018 µM

O=C(c1ccc(-n2ccc(CO)c2)cc1Cl)N1CCC2(C=CCCC2)Cc2ccccc21 (stereo not drawn) [Compound 164]
IC50 (V1a): 0.114 µM | inhibition at 0.25 µM (human V2 receptor; @ 0.25 μM, read-out: Receptor Binding V2 (% Inh. @ concentration in μM)): 20%

CCCCN1CCC(Oc2ccc(C(=O)N3CCC4(C=CCCC4)Cc4ccccc43)cc2F)CC1 (stereo not drawn) [Compound 171]
inhibition at 0.1 µM (V1a; [5]): 24% | inhibition at 1 µM (human V2 receptor; [1]): 65%

CC(C)CCN1CCC(Oc2ccc(C(=O)N3CCC4(C=CCCC4)Cc4ccccc43)cc2F)CC1 (stereo not drawn) [Compound 173]
inhibition at 0.1 µM (V1a; [5]): 0% | inhibition at 1 µM (human V2 receptor; [1]): 0%

Cc1ccccc1C(=O)Nc1ccc(C(=O)N2CCC3(C=CCCC3)Cc3ccccc32)c(Cl)c1 (stereo not drawn) [Compound 112]
IC50 (V1a): 0.062 µM | IC50 (human V2 receptor): 0.08 µM

O=C(Nc1ccc(C(=O)N2CCC3(C=CCCC3)Cc3ccccc32)cc1)c1c(Cl)cccc1Cl (stereo not drawn) [Compound 102]
IC50 (V1a): 0.046 µM | IC50 (human V2 receptor): 0.159 µM

O=C(O)c1ccn(-c2ccc(C(=O)N3CCC4(C=CCCC4)Cc4ccccc43)cc2)c1 (stereo not drawn) [Compound 199]
inhibition at 0.1 µM (V1a; [5]): 0% | inhibition at 0.1 µM (human V2 receptor; [3]): 2%

Cc1ccc(F)cc1C(=O)Nc1ccc(C(=O)N2CCC3(C=C(C(=O)O)CC3)Cc3ccccc32)c(Cl)c1 (stereo not drawn) [Compound 143]
inhibition at 0.1 µM (V1a; [5]): 10% | inhibition at 0.1 µM (human V2 receptor; [3]): 67%

CC(=O)N1CCC(Oc2ccc(C(=O)N3CCC4(C=CCCC4)Cc4ccccc43)cc2)CC1 (stereo not drawn) [Compound 224, 4-(4-(N-acetylpiperidin-4-yloxy)benzoyl)-4-aza-[6,5]-spiro-[5,6]-benzododec-2′-ene]
inhibition at 0.1 µM (V1a; [5]): 41% | Receptor Binding V2 (% Inh.) (human V2 receptor; concentration not given): 0%
